Results from PubChem BioAssay (NCI).
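Test compounds were applied to cells in 96-well plates for 48 hours at 5 doses. At the TGI there is no net growth.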

What was measured:
Assay in all cases: growth of human tumour cells (NCI), 48 h
HS 578T breast = system: HS 578T breast
U251 CNS = system: U251 CNS
786-0 renal = system: 786-0 renal
SNB-75 CNS = system: SNB-75 CNS
HCC-2998 colon = system: HCC-2998 colon
A498 renal = system: A498 renal
HL-60(TB) leukemia = system: HL-60(TB) leukemia
M14 melanoma = system: M14 melanoma
UO-31 renal = system: UO-31 renal
NCI-H23 lung = system: NCI-H23 lung
MCF7 breast = system: MCF7 breast
T-47D breast = system: T-47D breast
HCT-116 colon = system: HCT-116 colon
K-562 leukemia = system: K-562 leukemia
TK-10 renal = system: TK-10 renal
SF-539 CNS = system: SF-539 CNS
MDA-MB-435 = system: MDA-MB-435
LOX IMVI melanoma = system: LOX IMVI melanoma
A549 NSCLC = system: A549 NSCLC
HOP-92 NSCLC = system: HOP-92 NSCLC
NCI-H226 lung = system: NCI-H226 lung
HCT-15 colon = system: HCT-15 colon
SN12C renal = system: SN12C renal
HT29 colon = system: HT29 colon
SK-MEL-2 melanoma = system: SK-MEL-2 melanoma
COLO 205 colon = system: COLO 205 colon
HOP-62 NSCLC = system: HOP-62 NSCLC
RXF 393 renal = system: RXF 393 renal
SK-OV-3 ovarian = system: SK-OV-3 ovarian
MOLT-4 leukemia = system: MOLT-4 leukemia
CAKI-1 renal = system: CAKI-1 renal
RPMI-8226 leukemia = system: RPMI-8226 leukemia
SW-620 colon = system: SW-620 colon
SK-MEL-5 melanoma = system: SK-MEL-5 melanoma
SK-MEL-28 melanoma = system: SK-MEL-28 melanoma
SNB-19 CNS = system: SNB-19 CNS
NCI-H522 lung = system: NCI-H522 lung
EKVX NSCLC = system: EKVX NSCLC
MDA-MB-231 breast = system: MDA-MB-231 breast
OVCAR-8 ovarian = system: OVCAR-8 ovarian
OVCAR-5 ovarian = system: OVCAR-5 ovarian
NCI/ADR-RES ovarian = system: NCI/ADR-RES ovarian
KM12 colon = system: KM12 colon
OVCAR-3 ovarian = system: OVCAR-3 ovarian
CCRF-CEM leukemia = system: CCRF-CEM leukemia
UACC-62 melanoma = system: UACC-62 melanoma
OVCAR-4 ovarian = system: OVCAR-4 ovarian
BT-549 breast = system: BT-549 breast
SF-268 CNS = system: SF-268 CNS
ACHN renal = system: ACHN renal
MDA-N = system: MDA-N
MALME-3M melanoma = system: MALME-3M melanoma
DU-145 prostate = system: DU-145 prostate
SF-295 CNS = system: SF-295 CNS
NCI-H460 lung = system: NCI-H460 lung
IGROV1 ovarian = system: IGROV1 ovarian
PC-3 prostate = system: PC-3 prostate
UACC-257 melanoma = system: UACC-257 melanoma
SR leukemia = system: SR leukemia

Molecule CCC1=CC2Cc3nc4cc(Cl)ccc4c(N)c3C(C1)C2 (stereo not given) has a TGI (HS 578T breast) of 13.1 µM, a TGI (U251 CNS) of 25.3 µM and a TGI (786-0 renal) of 11.9 µM. For the same molecule, the TGI (SNB-75 CNS) was 18.5 µM, the TGI (HCC-2998 colon) was 3.69 µM and the TGI (A498 renal) was 17.3 µM. The TGI (HL-60(TB) leukemia) was 7.42 µM, the TGI (M14 melanoma) was 3.16 µM and the TGI (UO-31 renal) was 20.6 µM. It also gave a TGI (NCI-H23 lung) of 17.3 µM, a TGI (MCF7 breast) of 17.6 µM and a TGI (T-47D breast) of 7.3 µM. For the same molecule, the TGI (HCT-116 colon) was 9.77 µM, the TGI (K-562 leukemia) was 7.57 µM and the TGI (TK-10 renal) was 13.6 µM. It also gave a TGI (SF-539 CNS) of 28.8 µM, a TGI (MDA-MB-435) of 8.74 µM and a TGI (LOX IMVI melanoma) of 19.2 µM. It also gave a TGI (A549 NSCLC) of 30.8 µM, a TGI (HOP-92 NSCLC) of 6.48 µM and a TGI (NCI-H226 lung) of 5.73 µM. For the same molecule, the TGI (HCT-15 colon) was > 37.7 µM, the TGI (SN12C renal) was 28.2 µM and the TGI (HT29 colon) was 10.8 µM. For the same molecule, the TGI (SK-MEL-2 melanoma) was 21.2 µM, the TGI (COLO 205 colon) was 7.11 µM and the TGI (HOP-62 NSCLC) was 22.5 µM. It also gave a TGI (RXF 393 renal) of 8.15 µM, a TGI (SK-OV-3 ovarian) of 25.9 µM and a TGI (MOLT-4 leukemia) of 3.28 µM. It also gave a TGI (CAKI-1 renal) of 8.38 µM, a TGI (RPMI-8226 leukemia) of 5.79 µM and a TGI (SW-620 colon) of 36 µM. The TGI (SK-MEL-5 melanoma) was 4.05 µM, the TGI (SK-MEL-28 melanoma) was 7.5 µM and the TGI (SNB-19 CNS) was 22.7 µM. For the same molecule, the TGI (NCI-H522 lung) was 16.1 µM, the TGI (EKVX NSCLC) was 11.6 µM and the TGI (MDA-MB-231 breast) was 18.9 µM. The TGI (OVCAR-8 ovarian) was > 49.9 µM, the TGI (OVCAR-5 ovarian) was 15.4 µM and the TGI (NCI/ADR-RES ovarian) was 27.6 µM. It also gave a TGI (KM12 colon) of 19.5 µM, a TGI (OVCAR-3 ovarian) of 21.9 µM and a TGI (CCRF-CEM leukemia) of 15.9 µM. The TGI (UACC-62 melanoma) was 18.4 µM, the TGI (OVCAR-4 ovarian) was 17.2 µM and the TGI (BT-549 breast) was 35.4 µM. It also gave a TGI (SF-268 CNS) of 16.9 µM, a TGI (ACHN renal) of 26.7 µM and a TGI (MDA-N) of 18 µM. For the same molecule, the TGI (MALME-3M melanoma) was 9.46 µM, the TGI (DU-145 prostate) was 28.9 µM and the TGI (SF-295 CNS) was 12.2 µM. For the same molecule, the TGI (NCI-H460 lung) was 18.5 µM, the TGI (IGROV1 ovarian) was 20.7 µM and the TGI (PC-3 prostate) was 18.4 µM. It also gave a TGI (UACC-257 melanoma) of 4.72 µM.

For N#Cc1c(Cl)/c(=C/O)c(=O)n2c1nc1ccccc12, the TGI (HS 578T breast) was 94.7 µM, the TGI (U251 CNS) was > 100 µM and the TGI (786-0 renal) was > 100 µM. For the same molecule, the TGI (SNB-75 CNS) was > 100 µM, the TGI (HCC-2998 colon) was > 100 µM and the TGI (A498 renal) was 72.1 µM. For the same molecule, the TGI (HL-60(TB) leukemia) was 89.6 µM, the TGI (M14 melanoma) was > 100 µM and the TGI (UO-31 renal) was > 100 µM. For the same molecule, the TGI (NCI-H23 lung) was > 100 µM, the TGI (MCF7 breast) was > 100 µM and the TGI (HCT-116 colon) was > 100 µM. The TGI (K-562 leukemia) was > 100 µM, the TGI (TK-10 renal) was > 100 µM and the TGI (SF-539 CNS) was > 100 µM. The TGI (MDA-MB-435) was > 100 µM, the TGI (LOX IMVI melanoma) was > 100 µM and the TGI (A549 NSCLC) was > 100 µM. For the same molecule, the TGI (HOP-92 NSCLC) was 68.1 µM, the TGI (NCI-H226 lung) was 52 µM and the TGI (HCT-15 colon) was > 100 µM. The TGI (SN12C renal) was > 100 µM, the TGI (HT29 colon) was > 100 µM and the TGI (COLO 205 colon) was > 100 µM. For the same molecule, the TGI (HOP-62 NSCLC) was > 100 µM, the TGI (SK-OV-3 ovarian) was > 100 µM and the TGI (MOLT-4 leukemia) was 96.5 µM. For the same molecule, the TGI (CAKI-1 renal) was > 100 µM, the TGI (RPMI-8226 leukemia) was > 100 µM and the TGI (SW-620 colon) was > 100 µM. For the same molecule, the TGI (SK-MEL-5 melanoma) was > 100 µM, the TGI (SK-MEL-28 melanoma) was > 100 µM and the TGI (SNB-19 CNS) was > 100 µM. The TGI (NCI-H522 lung) was > 100 µM, the TGI (EKVX NSCLC) was > 100 µM and the TGI (MDA-MB-231 breast) was > 100 µM. For the same molecule, the TGI (OVCAR-8 ovarian) was > 100 µM, the TGI (OVCAR-5 ovarian) was 91.7 µM and the TGI (NCI/ADR-RES ovarian) was > 100 µM. The TGI (KM12 colon) was > 100 µM, the TGI (OVCAR-3 ovarian) was 99.5 µM and the TGI (CCRF-CEM leukemia) was > 100 µM. For the same molecule, the TGI (UACC-62 melanoma) was > 100 µM, the TGI (OVCAR-4 ovarian) was > 100 µM and the TGI (BT-549 breast) was > 100 µM. For the same molecule, the TGI (SF-268 CNS) was > 100 µM, the TGI (ACHN renal) was > 100 µM and the TGI (MDA-N) was > 100 µM. For the same molecule, the TGI (MALME-3M melanoma) was > 100 µM, the TGI (DU-145 prostate) was > 100 µM and the TGI (SF-295 CNS) was > 100 µM. For the same molecule, the TGI (NCI-H460 lung) was > 100 µM, the TGI (IGROV1 ovarian) was > 100 µM and the TGI (PC-3 prostate) was > 100 µM. The TGI (UACC-257 melanoma) was > 100 µM.

For CN(/N=C/c1ccccn1)C1=NCCCCN1, the TGI (HS 578T breast) was > 100 µM, the TGI (U251 CNS) was > 100 µM and the TGI (786-0 renal) was > 100 µM. The TGI (SNB-75 CNS) was > 100 µM, the TGI (HCC-2998 colon) was > 100 µM and the TGI (A498 renal) was > 100 µM. For the same molecule, the TGI (HL-60(TB) leukemia) was > 100 µM, the TGI (M14 melanoma) was > 100 µM and the TGI (UO-31 renal) was > 100 µM. The TGI (NCI-H23 lung) was > 100 µM, the TGI (MCF7 breast) was > 100 µM and the TGI (T-47D breast) was > 100 µM. For the same molecule, the TGI (HCT-116 colon) was > 100 µM, the TGI (K-562 leukemia) was > 100 µM and the TGI (TK-10 renal) was > 100 µM. The TGI (SF-539 CNS) was > 100 µM, the TGI (MDA-MB-435) was > 100 µM and the TGI (LOX IMVI melanoma) was > 100 µM. The TGI (A549 NSCLC) was > 100 µM, the TGI (HOP-92 NSCLC) was > 100 µM and the TGI (NCI-H226 lung) was > 100 µM. The TGI (HCT-15 colon) was > 100 µM, the TGI (HT29 colon) was > 100 µM and the TGI (SK-MEL-2 melanoma) was > 100 µM. For the same molecule, the TGI (COLO 205 colon) was > 100 µM, the TGI (HOP-62 NSCLC) was > 100 µM and the TGI (RXF 393 renal) was > 100 µM. The TGI (SK-OV-3 ovarian) was > 100 µM, the TGI (MOLT-4 leukemia) was > 100 µM and the TGI (CAKI-1 renal) was > 100 µM. For the same molecule, the TGI (RPMI-8226 leukemia) was > 100 µM, the TGI (SW-620 colon) was > 100 µM and the TGI (SK-MEL-5 melanoma) was > 100 µM. For the same molecule, the TGI (SK-MEL-28 melanoma) was > 100 µM, the TGI (SNB-19 CNS) was > 100 µM and the TGI (NCI-H522 lung) was > 100 µM. For the same molecule, the TGI (EKVX NSCLC) was > 100 µM, the TGI (MDA-MB-231 breast) was > 100 µM and the TGI (OVCAR-8 ovarian) was > 100 µM. The TGI (OVCAR-5 ovarian) was > 100 µM, the TGI (NCI/ADR-RES ovarian) was > 100 µM and the TGI (KM12 colon) was > 100 µM. For the same molecule, the TGI (OVCAR-3 ovarian) was > 100 µM, the TGI (CCRF-CEM leukemia) was > 100 µM and the TGI (UACC-62 melanoma) was > 100 µM. For the same molecule, the TGI (SR leukemia) was > 100 µM, the TGI (OVCAR-4 ovarian) was > 100 µM and the TGI (BT-549 breast) was > 100 µM. For the same molecule, the TGI (SF-268 CNS) was > 100 µM, the TGI (ACHN renal) was > 100 µM and the TGI (MDA-N) was > 100 µM. For the same molecule, the TGI (MALME-3M melanoma) was > 100 µM, the TGI (SF-295 CNS) was > 100 µM and the TGI (NCI-H460 lung) was > 100 µM. The TGI (IGROV1 ovarian) was > 100 µM, the TGI (PC-3 prostate) was > 100 µM and the TGI (UACC-257 melanoma) was > 100 µM.
